Results as given in ChEMBL document CHEMBL3091312, “Characterization and anti-inflammatory effects of iodinated acetylenic acids isolated from the marine sponges Suberites mammilaris and Suberites japonicus” (J Nat Prod, 2013).
The source made the active and inactive calls. No cut-off for these calls is given here.

How the values were obtained:
Type in all cases: functional, cell-based
[1] = system: BV-2; assay: Antiinflammatory activity against mouse BV2 cells assessed as inhibition of LPS-induced PGE2 production at 5 to 10 uM preincubated for 1 hr followed by LPS addition measured after 24 hrs by ELISA
[2] = system: BV-2; assay: Antiinflammatory activity against mouse BV2 cells assessed as effect on PGE2 level at 5 to 10 uM after 24 hrs by ELISA relative to control
[3] = system: RAW264.7; assay: Antiinflammatory activity against mouse RAW264.7 cells assessed as effect on PGE2 level at 5 to 10 uM after 24 hrs by ELISA relative to control
[4] = Antiinflammatory activity against mouse BV2 cells assessed as inhibition of LPS-induced NO production preincubated for 1 hr followed by LPS addition measured after 24 hrs by Griess method; conditions: BV-2
[5] = system: RAW264.7; assay: Antiinflammatory activity against mouse RAW264.7 cells assessed as inhibition of LPS-induced NO production preincubated for 1 hr followed by LPS addition measured after 24 hrs by Griess method
[6] = system: RAW264.7; assay: Antiinflammatory activity against mouse RAW264.7 cells assessed as inhibition of LPS-induced PGE2 production at 5 to 10 uM preincubated for 1 hr followed by LPS addition measured after 24 hrs by ELISA

Structure (SMILES) | inhibition [1] | Activity [2] | Activity [3] | IC50 [4] [µM] | IC50 [5] [µM] | inhibition [5] | inhibition [6]
C=CCCC/C=C\CC#CC/C=C\C/C(I)=C\CCCC(=O)OC | Active | inactive | inactive | 3.1 | 53.6 | – | –
CCCCC/C=C\CC#CC/C=C\C/C(I)=C\CCCC(=O)OC | Active | inactive | inactive | 1.8 | – | inactive | –
C/C=C/CC/C(I)=C\CC#CC/C=C\C/C(I)=C\CCCC(=O)OC | – | inactive | inactive | 18 | 7 | – | Active
C=C/C=C/C/C(I)=C\CC#CC/C=C\C/C(I)=C\CCCC(=O)OC | – | inactive | inactive | 23.3 | 3.9 | – | Active
